According to patent US20100298234A1, “Cancer therapeutic agents comprising a ligand for the neuromedin u receptor 2 (fm4) molecule as an active ingredient” (priority 2006, published 2010):

Experiments:
FM4-CHO cells [1] = assay: Wound healing assay (cell movement), FM4-CHO cells; format: cell-based, Chinese hamster; conditions: NmU 5 μM, serum-free medium, 24 hours, FIG. 9
Experimental: (§1) Next, the effect of NmU on cell movement ability was analyzed by wound healing assay. Parent cell line CHO cells and FM4-CHO cells were grown to confluency in plates, and wounded with a pipette tip to make a fixed clearance between the cells. After washing the cells twice with PBS, the cells were cultured in a serum-free culture medium in the presence or absence of NmU (5 μM). Twenty-four hours later, cells that moved into the clearance between the cells were observed and photographed under a microscope.

FM4-CHO cells [2] = assay: Proliferation-suppressing effect, WST-8 assay, FM4-CHO; format: cell-based, Chinese hamster; conditions: NmU 0.096 μM to 60 μM, 48 hours, FIG. 4A
Experimental: FM4-CHO cells were plated onto a 96-well plate at 2×10^3 cells/well. On the following day, NmU was added to each well at various concentrations (0.096 μM to 60 μM) and the cells were cultured. 48 Hours later, the number of viable cells were analyzed by WST-8 assay (Cell counting kit-8, Dojindo Laboratories).

CHO cells = assay: Wound healing assay (cell movement), parent CHO cells; format: cell-based, Chinese hamster; conditions: NmU 5 μM, serum-free medium, 24 hours, FIG. 9
Experimental: as §1

FM4 [3] = target: T1, FM4 (Homo sapiens, UniProt Q9GZQ4, A395T/C204F); assay: Intracellular Ca2+ concentration in FM4-expressing PANC1 cells (FM4-PANC1); format: cell-based; conditions: FM4-PANC1, NmU 1 μM, FIG. 6
T1 construct: using Pyrobest Taq polymerase (Takara) to clone the full-length FM4 gene; expressed in transfected cells
Experimental: (§2) The cells were detached using trypsin, plated onto a 96-well plate (black plate for fluorescence measurement) at 2×10^4 cells/well, and after culturing overnight, they were used for intracellular calcium measurements. Measurement of the intracellular calcium concentration was performed as follows.
After removing the medium, an Fluo 4 AM solution [2% FCS, 3 μM Fluo 4 AM (Molecular PROBES) in assay buffer (2 mM HEPES, 1.5 mM probenecid in HBSS)] was added at 50 μL/well. After incubation in the dark at 37° C. for 30 minutes, the cells were washed three times in the assay buffer. […]
In order to confirm that the NmU signaling is transmitted into the cell in the obtained FM4-expressing PANC1 cells (FM4-PANC1), whether the addition of NmU increased the intracellular Ca^2+ concentration was analyzed. […] This confirmed that in the established FM4-PANC1 cells, NmU stimulation causes the FM4-mediated signaling to be transmitted into the cell.

FM4-PANC1 cells = assay: Soft agar colony formation assay, FM4-PANC1 cells; format: cell-based, human; conditions: FM4-PANC1, NmU 1 μM, one month, FIG. 7
Experimental: (§3) To analyze the effect of NmU on the ability of this cell to form colonies, soft agar colony formation assay was performed. Soft agar colony formation assay was performed as follows.
(§4) Base agar (0.5% agar, 1×MEM, and 10% FCS) was added to each well of a 6-well plate at 1.5 mL/well, and then 1.5 mL/well (0.5×10^4 cells/well) of PANC1 cells or FM4-PANC1 cells in the presence or absence of NmU (1 μM) in top agar (0.35% agar, 1×MEM, and 10% FCS) was added at to each of the wells. After culturing for one month, the number of colony forming cells in the soft agar was counted under a microscope.

FM4 [4] = target: T1, FM4; assay: Intracellular Ca2+ concentration measurement (Fluo 4 AM) in FM4-expressing CHO cells; format: cell-based; conditions: FM4-CHO cell line, 2.5 μM NmU, FIG. 3
Experimental: 15 μg of linearized FM4 expression vector (pMCN-FM4) obtained by digestion with PvuI was introduced into CHO cells by electroporation (Gene Pulser; BioRad) at 1.5 kV, 25 μFD. The cells were cultured in a medium containing 500 μg/mL of G418, and G418-resistant cells were picked. NmU was added to these cells, and cell lines that reacted to NmU were selected using the increase in intracellular Ca^2+ concentration as an index.
as §2
After removing the medium, an Fluo 4 AM solution [2% FCS, 3 μM Fluo 4 AM (Molecular PROBES) in assay buffer (2 mM HEPES, 1.5 mM probenecid in HBSS)] was added at 50 μL/well. After incubation in the dark at 37° C. for 30 minutes, the cells were washed three times in the assay buffer. Then, an assay buffer that contains 2.5 μM of NmU (Funakoshi) was added, and the intracellular Ca^2+-dependent fluorescence trace at 490-nm excitation was monitored on a plate reader for fluorimetric analysis (Fusion; Perkin Elmer).

PANC1 cells = assay: Soft agar colony formation assay, parent PANC1 cells; format: cell-based, human; conditions: parent cell line PANC1 that does not express FM4, NmU 1 μM, one month, FIG. 7
Experimental: as §3, §4

[5] = administration into the cerebral ventricle; cited from earlier work
Capan-1 = assay: Proliferation of pancreatic cancer cell line Capan-1; format: cell-based, human; conditions: Capan-1 (high FM4 gene expression), NmU 0.096 μM to 60 μM, 72 hours, FIG. 4B
Experimental: (§5) On the following day, NmU was added to each well at 0.096 μM to 60 μM. Seventy-two hours later, the number of cells was determined.

PANC-1 = assay: Proliferation of pancreatic cancer cell line PANC-1; format: cell-based, human; conditions: PANC-1, NmU 0.096 μM to 60 μM, 72 hours, FIG. 4B
Experimental: as §5

FM3 = conditions: CHO, HEK-293 and COS-7 cells forced to express FM3; cited from earlier work
FM4-CHO cells [6] = assay: Cell morphology of FM4-CHO cells under a microscope after NmU stimulation; format: cell-based, Chinese hamster; conditions: FM4-CHO stimulated with NmU, in approximately 12 hours, FIG. 8
Description: The cell morphology of FM4-CHO cells which were forced to express FM4 was observed under a microscope.
This led to the speculation that NmU is involved in signal transduction that regulates cell adhesion and cell movement.

FM4 [7] = target: T2, FM4 (Homo sapiens, UniProt Q9GZQ4); conditions: CHO, HEK-293 and COS-7 cells forced to express FM4; cited from earlier work
T2 construct: host or cells: CHO, HEK-293 and COS-7 cells with forced expression
T2 sequence (Q9GZQ4 whole entry): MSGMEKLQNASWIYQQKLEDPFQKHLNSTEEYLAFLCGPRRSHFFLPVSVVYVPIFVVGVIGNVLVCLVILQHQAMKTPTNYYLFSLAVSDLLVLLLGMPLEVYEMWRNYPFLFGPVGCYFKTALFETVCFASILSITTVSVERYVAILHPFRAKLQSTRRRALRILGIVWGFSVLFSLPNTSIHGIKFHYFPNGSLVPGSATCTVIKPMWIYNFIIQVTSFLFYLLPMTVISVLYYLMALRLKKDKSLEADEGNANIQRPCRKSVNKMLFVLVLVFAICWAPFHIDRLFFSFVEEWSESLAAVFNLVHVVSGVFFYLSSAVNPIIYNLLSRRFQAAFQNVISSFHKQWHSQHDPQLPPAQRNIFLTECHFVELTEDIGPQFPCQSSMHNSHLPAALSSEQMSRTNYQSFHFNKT

T1 sequence (Q9GZQ4 whole entry C204F/A395T): as the sequence (Q9GZQ4 whole entry) above, with C204F, A395T counted along it

Question: For “NmU: biologically active peptide, endogenous ligand for FM3 and FM4; polypeptide of SEQ ID NO: 14; NmU (Funakoshi) used in the tests (FRVDEEFQSPFASQSRGYFLFRPRN; listed as Homo sapiens)”, which cell movement (FM4-CHO cells [1]) is on record?
Answer: The cell movement was “completely inhibited”.

Question: And the “proliferation (number of viable cells, WST-8)” value (FM4-CHO cells [2])?
Answer: The value was “suppressed proliferation of FM4-CHO at low concentration”.

Question: And the cell movement (CHO cells)?
Answer: Its cell movement is “did not have any effect”.

Question: And the “intracellular Ca2+ concentration” value (FM4 [3])?
Answer: Its value is “increase of the intracellular Ca^2+ concentration”.

Question: And the “colony forming ability in soft agar” value (FM4-PANC1 cells)?
Answer: Its value is “colony formation-suppressing effect by NmU was confirmed”.

Question: And the “intracellular Ca2+ concentration” value (FM4 [4])?
Answer: Its value is “quickly increased”.

Question: What about the “colony forming ability in soft agar” value (PANC1 cells) of the same substance?
Answer: Its value is “did not have any effect”.

Question: What about the food/feed intake [5] of the same substance?
Answer: The food/feed intake was “significant reduction in overnight food intake and starvation-induced feeding”.

Question: What about the “proliferation (number of cells)” value (Capan-1) of the same substance?
Answer: Its value is “proliferation-suppressing effect of NmU was observed”.

Question: What about the “proliferation (number of cells)” value (PANC-1) of the same substance?
Answer: The value was “did not act at all on the proliferation”.

Question: What about the “intracellular calcium ion concentration” value (FM3) of the same substance?
Answer: Its value is “induced increase of intracellular calcium ion concentration at the nanomolar level”.

Question: What about the cell morphology (FM4-CHO cells [6]) of the same substance?
Answer: The cell morphology was “significant morphological alterations of the cells such as disappearance of cell protrusions”.

Question: And the “intracellular calcium ion concentration” value (FM4 [7])?
Answer: Its value is “induced increase of intracellular calcium ion concentration at the nanomolar level”.
